Results on eight compounds are retold here after article PMC8199755, “In Vitro and In Vivo Trypanocidal Efficacy of Synthesized Nitrofurantoin Analogs” (Molecules, 2021).

The subject of data set [1] is T. b. gambiense IL1922. Kind of data set: In vitro trypanocidal activity (CellTiter-Glo, 3 days). It counts as cell-based. The following applies: Trypanosoma brucei, 72 h, bloodstream forms, 37 °C, mean ± SD of triplicate, read-out: Trypanocidal Activity IC50 ± SD, Tbg IL1922. On the procedure:
(§1) The bloodstream forms of T. b. brucei GUTat3.1, T. b. rhodesiense IL1501, T. b. rhodesiense Chirundu, T. b. gambiense IL1922, and T. evansi Tansui strains were propagated in culture at 37 °C, whereas the T. congolense IL3000 strain was propagated at 33 °C in Hirumi’s modified Iscove’s medium-9, supplemented with 20% heat-inactivated fetal bovine serum. The bloodstream form cultures were maintained by replacing the entire culture supernatant with fresh medium, every other day.
(§2) The trypanocidal activity and cytotoxicity of nitrofurantoin analogs were evaluated according to previous reports, with some modifications. In brief, bloodstream forms adjusted at 2.5 × 10^3 cells/mL (T. b. brucei GUTat3.1, T. b. gambiense IL1922, and T. b. rhodesiense IL1501), 1 × 10^4 cells/mL (T. evansi Tansui and T. b. rhodesiense Chirundu), and 1 × 10^5 cells/mL (T. congolense IL3000), were cultivated in Nunc® MicroWell 96-well optical bottom plates (Thermo Fisher Scientific, Waltham, MA, USA) and exposed to various analogs at seven different concentrations for 3 days, in an incubator at 37 °C (33 °C for T. congolense IL3000). […] Twenty-five microliters of the Cell-TiterGlo® (Promega, Madison, WI, USA) reagent was added into each well, and bioluminescence was measured using a GloMax®-Multi+Detection System plate reader (Promega).
(§3) The half maximum inhibitory concentration (IC50) of each analog in trypanosomes and the Madin–Darby bovine kidney cells was calculated using the GraphPad Prism version 8 software (GraphPad, Inc., San Diego, CA, USA).
Background: ATP-based viability assays read luminescence as a measure of living cells.

The subject of data set [2] is T. evansi Tansui. Described as above. Type of data set: cell-based. The following applies: 72 h, bloodstream forms, 37 °C, mean ± SD of triplicate, read-out: Trypanocidal Activity IC50 ± SD, Tev Tansui. On the procedure:
as §1, §2, §3

Data set [3] has as its system T. congolense IL3000. The data set is described as above. It counts as cell-based. As to conditions: Trypanosoma congolense, 72 h, bloodstream forms, 33 °C, mean ± SD of triplicate, read-out: Trypanocidal Activity IC50 ± SD, Tc IL3000. On the procedure: as §1, §2, §3
Data set [4] concerns T. b. brucei GUTat3.1. Described as above. It counts as cell-based. As to conditions: Trypanosoma brucei, 72 h, bloodstream forms, 37 °C, mean ± SD of triplicate, read-out: Trypanocidal Activity IC50 ± SD, Tbb GUTat3.1. On the procedure: as §1, §2, §3
For data set [5], the system named is T. b. rhodesiense Chirundu. The description is as above. It counts as cell-based. As to conditions: Trypanosoma brucei, 72 h, bloodstream forms, 37 °C, mean ± SD of triplicate, read-out: Trypanocidal Activity IC50 ± SD, Tbr Chirundu. On the procedure: as §1, §2, §3
The test system of data set [6] is T. b. rhodesiense IL1501. Described as above. It counts as cell-based. The following applies: Trypanosoma brucei, 72 h, bloodstream forms, 37 °C, mean ± SD of triplicate, read-out: Trypanocidal Activity IC50 ± SD, Tbr IL1501. On the procedure: as §1, §2, §3
Data set [7] has as its system mycobacterial. On the set-up: method as in PMID 32044516. As to conditions: more potent than nitrofurantoin; cited from earlier work.
The nature of data set [8]: Cytotoxicity (Cell Counting Kit-8, 3 days). Type of data set: cell-based, bovine. As to conditions: bovine, Madin–Darby bovine kidney (MDBK) cells, 37 °C, mean ± SD of triplicate. On the procedure: (§4) Additionally, Madin–Darby bovine kidney cells were cultivated (density, 1 × 10^4 cells/mL) in a 96-well cell culture plate (Thermo Fisher Scientific) with the analogs, at seven different concentrations for 3 days at 37 °C. Next, 10 µl of the Cell Counting Kit-8 solution (Dojindo, Kumamoto, Japan) was added into each well […] 4 h of incubation. Absorbance was measured at 450 nm using a GloMax®-Multi+Detection System plate reader.
as §3

Data set [9] concerns T. congolense IL3000. Put plainly: In vivo treatment efficacy in mice infected with T. congolense. On the set-up: species or system BALB/c mice. The following applies: for time by which all mice died because of high parasitemia: intraperitoneal injection at 0.1 mg/kg; for time by which all mice died because of high parasitemia / time by which all mice succumbed to high parasite levels: 7 consecutive days from 2 dpi. On the procedure: Healthy female 8-week-old BALB/c mice (CLEA Japan, Inc., Tokyo, Japan) were used in this study. All animals had ad libitum access to normal chow and water.
The virulent T. congolense IL3000 strain was propagated in a mouse and used for infection. The parasites were passaged once in a mouse before the experiment. The experimental mice were intraperitoneally infected with 100 μL of T. congolense in phosphate-buffered saline, containing 10% glucose at 1 × 10^3 cells/mouse. First, the mice were randomly divided into six groups of three mice, each as follows. Group I (no treatment), mice were not infected and were only treated with solvent (10% dimethyl sulfoxide–phosphate–buffered saline). Group II received 3.5 mg/kg of diminazene aceturate treatment. Groups III (9), IV (11), V (12), and VI were treated with nitrofurantoin and the mice were infected and intraperitoneally treated with 0.1 mg/kg of the compound.
In the second experiment, the mice were randomly divided into six groups of three mice, each as follows—group I received no treatment; group II received 3.5 mg/kg of diminazene aceturate treatment; and groups III (9), IV (11), V (12), and VI received nitrofurantoin—the mice were infected and orally treated with 10 mg/kg of the compound.
Treatment was initiated at 2 days post-infection (dpi) and continued for seven consecutive days. The treatments were freshly prepared each day. Parasitemia was observed using a cell counting chamber until 14 dpi.

Data set [10] relates to six species/strains of animal and human trypanosomes. Kind of data set: In vitro trypanocidal activity, summary over all strains. As to conditions: over the six trypanosome species/strains. It counts as cell-based. On the procedure: as §1
The trypanocidal activity and cytotoxicity of nitrofurantoin analogs were evaluated according to previous reports, with some modifications. […] Twenty-five microliters of the Cell-TiterGlo® (Promega, Madison, WI, USA) reagent was added into each well, and bioluminescence was measured using a GloMax®-Multi+Detection System plate reader (Promega).
as §3

The subject of data set [11] is Madin–Darby bovine kidney cells. Put plainly: Cytotoxicity (Cell Counting Kit-8, 3 days). Type of data set: cell-based. The following applies: MDBK cells, 37 °C, mean ± SD of triplicate. On the procedure:
as §4, §3

[12] abbreviates: after both oral (10 mg/kg) and intraperitoneal (0.1 mg/kg) administration.
Setting [13] is: oral, 10 mg/kg, T. congolense-infected mice.

In general, IC50 refers to the midpoint of a concentration-inhibition curve.

On to `CCCCCCCCN1C(=O)CN(/N=C/c2ccc([N+](=O)[O-])o2)C1=O` [Analog 8, (E)-1-([(5-Nitrofuran-2-yl)methylene]amino)-3-octylimidazolidine-2,4-dione], for which the IC50 in data set [1] was found to be 1400 ± 730 nM; in data set [2] it was 810 ± 82 nM; in data set [3] it was 30 ± 5 nM; in data set [4] it was 1890 ± 690 nM; in [5] it was 39 ± 8.4 nM; in data set [6] it was 1380 ± 820 nM. Besides, the “anti-mycobacterial potency relative to nitrofurantoin” value in data set [7] is on record as 30 fold. In data set [8], this compound registered an IC50 at 3 days of 84700 ± 8990 nM.

As for `CCCCCCCCCN1C(=O)CN(/N=C/c2ccc([N+](=O)[O-])o2)C1=O` [Analog 9, (E)-1-([(5-Nitrofuran-2-yl)methylene]amino)-3-nonylimidazolidine-2,4-dione], the IC50 in data set [1] is 440 ± 170 nM; in data set [2], 270 ± 25 nM; in data set [3], 10 ± 3.5 nM; in [4], 570 ± 220 nM; in [5] it was 17 ± 6.7 nM; in [6], 600 ± 540 nM. For the same compound, the “treatment efficacy against T. congolense infection in vivo” value (“treatment efficacy” for short) in [9] (setting [12]) is given as “no treatment efficacy”. Further, the “time by which all mice died because of high parasitemia” value (from here on “time by which all mice died because”) in [9] (T. congolense-infected mice) is given as at most 9 dpi. For the same compound, the “time by which all mice succumbed to high parasite levels” value (shortened to “time by which all mice succumbed”) in data set [9] (setting [13]) is reported as at most 9 dpi. This compound also displayed an IC50 at 3 days in data set [8] of 251000 ± 58300 nM.

As to `CCCCCCCCCCCN1C(=O)CN(/N=C/c2ccc([N+](=O)[O-])o2)C1=O` [Analog 11, (E)-1-([(5-Nitrofuran-2-yl)methylene]amino)-3-undecylimidazolidine-2,4-dione], the IC50 in data set [10] is under 340 nM; in [1] it was 330 ± 120 nM; in data set [2], 160 ± 14 nM; in [3] it was 11 ± 3.5 nM; in [4], 330 ± 120 nM; in data set [5] it was 21 ± 9.4 nM. In addition, the IC50 in [6] is 240 ± 130 nM; in data set [11], over 255000 nM. Further, the “treatment efficacy” value in data set [9] (setting [12]) is given as “no treatment efficacy”. Moreover, in [9] (T. congolense-infected mice), the “time by which all mice died because” value is listed as at most 9 dpi. Further, in [9] (setting [13]), the “time by which all mice succumbed” value is on record as at most 9 dpi. The compound further registered an IC50 at 3 days in data set [8] of over 246000 nM.

As for `CCCCCCCCCCCCN1C(=O)CN(/N=C/c2ccc([N+](=O)[O-])o2)C1=O` [Analog 12, (E)-3-Dodecyl-1-([(5-nitrofuran-2-yl)methylene]amino)imidazolidine-2,4-dione], the IC50 is under 340 nM in data set [10]; 230 ± 130 nM in data set [1]; 200 ± 17 nM in data set [2]; 12 ± 4.5 nM in data set [3]; 340 ± 120 nM in data set [4]; 31 ± 11 nM in data set [5]. For the same compound, the IC50 in [6] was determined as 260 ± 110 nM. For the same compound, in data set [9] (setting [12]), the “treatment efficacy” value was “no treatment efficacy”. Moreover, the “time by which all mice died because” value in data set [9] (T. congolense-infected mice) is on record as at most 9 dpi. Moreover, the “time by which all mice succumbed” value in data set [9] (setting [13]) is at most 9 dpi. The same compound registered an IC50 at 3 days in data set [8] of over 246000 nM.

For `COc1ccc(CN2C(=O)CN(/N=C/c3ccc([N+](=O)[O-])o3)C2=O)cc1` [Analog 18, (E)-3-(p-Methoxybenzyl)-1-([(5-nitrofuran-2-yl)methylene]amino)imidazolidine-2,4-dione], the IC50 in data set [1] worked out at 9780 ± 310 nM; in data set [2], 2400 ± 190 nM; in data set [3], 140 ± 30 nM; in data set [4] it was 9910 ± 92 nM; in data set [5], 330 ± 220 nM; in [6], 10100 ± 620 nM. Moreover, in [8], the IC50 at 3 days was found to be 80100 ± 36900 nM.

For the compound `O=C1CN(/N=C/c2ccc([N+](=O)[O-])o2)C(=O)N1Cc1ccc(Br)cc1` [Analog 19, (E)-3-(p-Bromobenzyl)-1-([(5-nitrofuran-2-yl)methylene]amino)imidazolidine-2,4-dione], the IC50 worked out at 2040 ± 91 nM in [1]; 1150 ± 110 nM in data set [2]; 49 ± 33 nM in data set [3]; 2130 ± 230 nM in data set [4]; 41 ± 25 nM in data set [5]; 2470 ± 690 nM in data set [6]. The compound also came in with an IC50 at 3 days in data set [8] of 28700 ± 5690 nM.

Regarding `O=C1CN(/N=C/c2ccc([N+](=O)[O-])o2)C(=O)N1` [Nitrofurantoin], the IC50 in [1] amounted to 1620 ± 280 nM; in data set [2], 1960 ± 500 nM; in [3] it was 360 ± 43 nM; in [4], 1420 ± 150 nM; in [6], 1420 ± 250 nM. In addition, the “time by which all mice died because” value in data set [9] (T. congolense-infected mice) is reported as at most 9 dpi. Besides, the “treatment efficacy” value in [9] (oral treatment, 10 mg/kg) is on record as “partial efficacy”. Also, the “mice surviving until end of the experiment period” value in data set [9] (oral, 10 mg/kg, three mice per group, observed until 14 dpi) is recorded as “two of three”.

In the case of `CC(=O)NCC(=O)O.CC(=O)NCC(=O)O.N=C(N)c1ccc(N=NNc2ccc(C(=N)N)cc2)cc1` [diminazene aceturate, reference compound], the parasitemia entry in data set [9] (group II, 3.5 mg/kg, T. congolense-infected mice) is given as “not observed”.
